Active and inactive are the calls of the source. No cut-off for these calls is given here.
How the values were obtained:
[1] = Toxicity in BALB/c nude mouse xenografted with human Lenvatinib-resistant Huh7/Len cells assessed as changes in body weight at 3 mg/kg, IG cotreated with lobeline 5 times per week for 3 weeks; format: organism-based; settings: in vivo, po, 504 h
[2] = test system: Lenvatinib-resistant Huh7/Len; test: Antiproliferative activity against human Lenvatinib-resistant Huh7/Len cells assessed as inhibition of cell viability up to 40 uM after 72 hrs in presence of lobeline by CCK-8 assay; format: functional, cell-based
[3] = test system: Lenvatinib-resistant Hep3B/Len; test: Antiproliferative activity against human Lenvatinib-resistant Hep3B/Len cells assessed as inhibition of clone formation ability at 5 to 10 uM preincubated for 72 hrs and measured after 7 to 10 days by crystal violet staining based assay; format: functional, cell-based; settings: dose 5-10 µM, time 10-13 day
[4] = test system: Lenvatinib-resistant Huh7/Len; test: Induction of apoptosis in human Lenvatinib-resistant Huh7/Len cells xenografted in BALB/c nude mouse assessed as apoptotic cells in tumor tissue at 3 mg/kg, IG cotreated with lobeline 5 times per week for 3 weeks by immunohistochemistry analysis; format: functional, organism-based
[5] = test system: Lenvatinib-resistant Huh7/Len; test: Antitumor activity against human Lenvatinib-resistant Huh7/Len cells xenografted in BALB/c nude mouse assessed as reduction in Ki-67 protein expression tumor tissue at 3 mg/kg, IG cotreated with lobeline 5 times per week for 3 weeks by immunohistochemistry analysis; format: functional; parameters: scale not given: the % may be the effect or the level left
[6] = test system: Lenvatinib-resistant Huh7/Len; test: Antitumor activity against human Lenvatinib-resistant Huh7/Len cells xenografted in BALB/c nude mouse assessed as tumor growth inhibition at 3 mg/kg, IG cotreated with lobeline 5 times per week for 3 weeks; format: functional, organism-based
[7] = Toxicity in BALB/c nude mouse xenografted with human Lenvatinib-resistant Huh7/Len cells assessed as changes in body weight at 3 mg/kg, IG administered 5 times per week for 3 weeks; format: organism-based; settings: in vivo, po, 504 h
[8] = test system: Lenvatinib-resistant HCC/Len; test: Antitumor activity against human Lenvatinib-resistant HCC/Len cells xenografted in BALB/c nude mouse model of PDX assessed as reduction in Ki-67 protein expression tumor tissue at 3 mg/kg, IG cotreated with lobeline 5 times per week for 3 weeks by immunohistochemistry analysis; format: functional, organism-based
[9] = test system: Lenvatinib-resistant HCC/Len; test: Antitumor activity against human Lenvatinib-resistant HCC/Len cells xenografted in BALB/c nude mouse model of PDX assessed as inhibition of tumor volume at 3 mg/kg, IG cotreated with lobeline 5 times per week for 3 weeks relative to control; format: functional; settings: po, 504 h
[10] = test system: Lenvatinib-resistant Huh7/Len; test: Antitumor activity against human Lenvatinib-resistant Huh7/Len cells xenografted in BALB/c nude mouse assessed as inhibition of tumor volume at 3 mg/kg, IG cotreated with lobeline 5 times per week for 3 weeks relative to control; format: functional; settings: po, 504 h
[11] = test system: Lenvatinib-resistant Huh7/Len; test: Antiproliferative activity against human Lenvatinib-resistant Huh7/Len cells assessed as inhibition of clone formation ability at 5 to 10 uM preincubated for 72 hrs and measured after 7 to 10 days in presence of lobeline by crystal violet staining based assay; format: functional, cell-based; settings: dose 5-10 µM, time 10-13 day
[12] = Toxicity in BALB/c nude mouse xenografted with human Lenvatinib-resistant Huh7/Len cells assessed as changes in organ index at 3 mg/kg, IG cotreated with lobeline 5 times per week for 3 weeks; format: organism-based; settings: in vivo, po, 504 h
[13] = Toxicity in BALB/c nude mouse PDX model xenografted with human Lenvatinib-resistant HCC/Len cells assessed as changes in body weight at 3 mg/kg, IG cotreated with lobeline 5 times per week for 3 weeks administered 5 times per week for 3 weeks; format: organism-based; settings: in vivo, po, 504 h
[14] = Toxicity in BALB/c nude mouse PDX model xenografted with human Lenvatinib-resistant HCC/Len cells assessed as changes in body weight at 3 mg/kg, IG administered 5 times per week for 3 weeks; format: organism-based; settings: in vivo, po, 504 h
[15] = test system: Lenvatinib-resistant HCC/Len; test: Antitumor activity against human Lenvatinib-resistant HCC/Len cells xenografted in BALB/c nude mouse model of PDX assessed as tumor growth inhibition at 3 mg/kg, IG cotreated with lobeline 5 times per week for 3 weeks; format: functional, organism-based
[16] = test system: Lenvatinib-resistant HCC/Len; test: Antitumor activity against human Lenvatinib-resistant HCC/Len cells xenografted in BALB/c nude mouse model of PDX assessed as reduction in m6A protein expression tumor tissue at 3 mg/kg, IG cotreated with lobeline 5 times per week for 3 weeks by immunohistochemistry analysis; format: functional, organism-based
[17] = test system: Lenvatinib-resistant Huh7/Len; test: Inhibition of cell migration in human Lenvatinib-resistant Huh7/Len cells at 5 uM incubated for 48 hrs by transwell assay; format: functional, cell-based
[18] = test system: Lenvatinib-resistant Huh7/Len; test: Antiproliferative activity against human Lenvatinib-resistant Huh7/Len cells assessed as inhibition of clone formation ability at 5 to 10 uM preincubated for 72 hrs and measured after 7 to 10 days by crystal violet staining based assay; format: functional, cell-based; settings: dose 5-10 µM, time 10-13 day
[19] = test system: Lenvatinib-resistant Hep3B/Len; test: Inhibition of cell migration in human Lenvatinib-resistant Hep3B/Len cells at 5 uM incubated for 48 hrs in presence of lobeline by transwell assay relative to control; format: functional
[20] = Toxicity in BALB/c nude mouse xenografted with human Lenvatinib-resistant Huh7/Len cells assessed as changes in organ index at 3 mg/kg, IG administered 5 times per week for 3 weeks; format: organism-based; settings: in vivo, po, 504 h
[21] = test system: Lenvatinib-resistant Hep3B/Len; test: Antiproliferative activity against human Lenvatinib-resistant Hep3B/Len cells assessed as inhibition of cell viability up to 40 uM after 72 hrs in presence of lobeline by CCK-8 assay; format: functional, cell-based
[22] = Toxicity in BALB/c nude mouse PDX model xenografted with human Lenvatinib-resistant HCC/Len cells assessed as changes in organ index at 3 mg/kg, IG administered 5 times per week for 3 weeks; format: organism-based; settings: in vivo, po, 504 h
[23] = Toxicity in BALB/c nude mouse PDX model xenografted with human Lenvatinib-resistant HCC/Len cells assessed as changes in organ index at 3 mg/kg, IG cotreated with lobeline 5 times per week for 3 weeks administered 5 times per week for 3 weeks; format: organism-based; settings: in vivo, po, 504 h
[24] = test system: Lenvatinib-resistant Hep3B/Len; test: Antiproliferative activity against human Lenvatinib-resistant Hep3B/Len cells assessed as inhibition of clone formation ability at 5 to 10 uM preincubated for 72 hrs and measured after 7 to 10 days in presence of lobeline by crystal violet staining based assay; format: functional, cell-based; settings: dose 5-10 µM, time 10-13 day
[25] = test system: Lenvatinib-resistant Huh7/Len; test: Inhibition of cell migration in human Lenvatinib-resistant Huh-7/Len cells at 5 uM incubated for 48 hrs in presence of lobeline by transwell assay relative to control; format: functional
[26] = test system: Lenvatinib-resistant Hep3B/Len; test: Inhibition of cell migration in human Lenvatinib-resistant Hep3B/Len cells at 5 uM incubated for 48 hrs by transwell assay; format: functional, cell-based

## COc1cc2nccc(Oc3ccc(NC(=O)NC4CC4)c(Cl)c3)c2cc1C(N)=O [LENVATINIB]
[1]
  Activity: Non-Toxic
[2]
  inhibition: Active
[3]
  inhibition: inactive
[4]
  Activity: Active
[5]
  Activity: 30%
[6]
  TGI: Active
[7]
  Activity: Non-Toxic
[8]
  Activity: Active
[9]
  inhibition in vivo at 3 mg/kg: 60%
[10]
  inhibition in vivo at 3 mg/kg: 68%
[11]
  inhibition: inactive
[12]
  Activity: Non-Toxic
[13]
  Activity: Non-Toxic
[14]
  Activity: Non-Toxic
[15]
  TGI: Active
[16]
  Activity: Active
[17]
  inhibition: inactive
[18]
  inhibition: inactive
[19]
  inhibition at 5 µM: 42%
[20]
  Activity: Non-Toxic
[21]
  inhibition: Active
[22]
  Activity: Non-Toxic
[23]
  Activity: Non-Toxic
[24]
  inhibition: inactive
[25]
  inhibition at 5 µM: 42%
[26]
  inhibition: inactive

— ChEMBL document CHEMBL5584314, “Identification of an m6A Natural Inhibitor, Lobeline, That Reverses Lenvatinib Resistance in Hepatocellular Tumors” (J Nat Prod, 2024)
